Data taken from PMC9292003, “A β‐ketoacyl carrier protein reductase confers heat tolerance via the regulation of fatty acid biosynthesis and stress signaling in rice” (The New Phytologist, 2021).

Molecular target: T1, HTS1 (GST-HTS1) (Oryza sativa, UniProt Q7XMI8)
T1 construct: E. coli BL21; vector printed as pET30a
Assay: NADPH absorption at
Format: biochemical
Conditions: reductase activity; co-substrate printed as NADH in results, NADPH in methods

CC(=O)CC(=O)SCCNC(=O)CCNC(=O)[C@H](O)C(C)(C)COP(=O)(O)OP(=O)(O)OC[C@H]1O[C@@H](n2cnc3c(N)ncnc32)[C@H](O)[C@@H]1OP(=O)(O)O [acetoacetyl-CoA]
NADPH absorption at 340 nm: High catalytic activity was detected in GST‐HTS1 after introducing acetoacetyl‐CoA and NADH
